In patent US20240058347A1, “DOSAGES FOR HDAC TREATMENT WITH REDUCED SIDE EFFECTS” (VIRACTA THERAPEUTICS, INC., priority 2019, published 2024):
Like-named read-outs stand apart in the source and are kept apart here.

Tests used:
HDAC2 = HDAC2 (Homo sapiens, UniProt Q92769); experiment: biochemical
Method: (§1) Briefly, all of the compounds are dissolved in DMSO. A series of dilutions of the compounds were prepared with 10% DMSO in HDAC assay buffer and 5 μl of the dilution was added to a 50 μl reaction so that the final concentration of DMSO is 1% in all of reactions. The compounds were pre-incubated in duplicate at RT for 1 hour in a mixture containing HDAC assay buffer, 5 μg BSA, HDAC enzyme (see Table 7) and a the particular HDACi. After 1 hour, the enzymatic reactions were initiated by the addition of HDAC substrate (BPS Bioscience) to a final concentration of 10 μM or 2 μM. The enzymatic reaction proceeded for 30 minutes at 37° C.
(§2) HDAC activity assays were performed in duplicates at each concentration. The fluorescent intensity data were analyzed using the computer software, Graphpad Prism. In the absence of the compound, the fluorescent intensity (Ft) in each data set was defined as 100% activity. In the absence of HDAC, the fluorescent intensity (Fb) in each data set was defined as 0% activity. The percent activity in the presence of each compound was calculated according to the following equation: % activity=(F−Fb)/(Ft−Fb), where F=the fluorescent intensity in the presence of the compound.
(§3) The values of % activity versus a series of compound concentrations were then plotted using non-linear regression analysis of Sigmoidal dose-response curve generated with the equation Y=B+(T−B)/1+10^((Log C50−X)×Hill Slope), where Y=percent activity, B=minimum percent activity, T=maximum percent activity, X=logarithm of compound and Hill Slope=slope factor or Hill coefficient. The IC50 value was determined by the concentration causing a half-maximal percent activity.

HDAC6 = target: T1, HDAC6 (Homo sapiens, UniProt Q9UBN7); experiment: biochemical
T1 sequence (Q9UBN7 1-1215): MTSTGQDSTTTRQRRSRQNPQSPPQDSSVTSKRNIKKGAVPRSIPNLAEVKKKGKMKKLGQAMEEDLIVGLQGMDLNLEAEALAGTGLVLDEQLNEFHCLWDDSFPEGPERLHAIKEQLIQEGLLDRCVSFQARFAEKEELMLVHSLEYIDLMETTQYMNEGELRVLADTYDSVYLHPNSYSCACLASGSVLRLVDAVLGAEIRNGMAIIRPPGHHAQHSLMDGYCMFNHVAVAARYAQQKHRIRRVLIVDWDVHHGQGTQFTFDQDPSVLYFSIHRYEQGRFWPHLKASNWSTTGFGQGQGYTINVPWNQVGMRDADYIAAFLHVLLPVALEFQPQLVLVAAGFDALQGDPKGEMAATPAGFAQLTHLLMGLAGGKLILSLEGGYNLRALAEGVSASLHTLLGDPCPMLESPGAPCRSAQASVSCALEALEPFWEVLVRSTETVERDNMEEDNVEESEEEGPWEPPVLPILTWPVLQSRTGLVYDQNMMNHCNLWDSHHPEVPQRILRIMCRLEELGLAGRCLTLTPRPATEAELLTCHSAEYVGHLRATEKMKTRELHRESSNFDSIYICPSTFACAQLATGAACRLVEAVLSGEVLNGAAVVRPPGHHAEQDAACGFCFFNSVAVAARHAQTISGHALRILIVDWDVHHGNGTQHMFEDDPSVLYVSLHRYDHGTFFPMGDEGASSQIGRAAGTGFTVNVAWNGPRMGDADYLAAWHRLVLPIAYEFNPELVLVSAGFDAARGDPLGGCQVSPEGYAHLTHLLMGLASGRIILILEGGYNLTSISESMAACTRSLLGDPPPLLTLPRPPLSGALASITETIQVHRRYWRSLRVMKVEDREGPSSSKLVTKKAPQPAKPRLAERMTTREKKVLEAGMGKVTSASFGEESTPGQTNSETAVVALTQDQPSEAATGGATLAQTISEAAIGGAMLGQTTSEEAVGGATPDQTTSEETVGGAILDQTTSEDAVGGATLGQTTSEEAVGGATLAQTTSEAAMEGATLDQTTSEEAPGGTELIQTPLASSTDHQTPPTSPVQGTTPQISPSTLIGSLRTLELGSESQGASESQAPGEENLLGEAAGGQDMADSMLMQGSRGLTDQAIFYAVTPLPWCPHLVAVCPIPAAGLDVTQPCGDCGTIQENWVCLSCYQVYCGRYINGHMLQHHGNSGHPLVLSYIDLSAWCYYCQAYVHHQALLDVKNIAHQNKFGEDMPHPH
Method: as §1, §2, §3

[1] = Single dose pharmacokinetics of VRx-3996 in patients, serum, cycle 1 day 1; type: in vivo, humans; conditions: human, po
Method: Patients enrolled in study were administered oral nanatinostat and valganciclovir at predefined doses. […] 8.1 software.

HDAC9 = HDAC9 (Homo sapiens, UniProt Q9UKV0); experiment: in vitro HDAC inhibition assay (fluorescence), HDAC9; type: biochemical; conditions: HDAC9
Method: as §1
as §2, with “compound. […]” for “compound.”

HDAC11 = target: T2, HDAC11 (Homo sapiens, UniProt Q96DB2); experiment: in vitro HDAC inhibition assay (fluorescence), HDAC11; type: biochemical; conditions: HDAC11
T2 sequence (Q96DB2 1-347): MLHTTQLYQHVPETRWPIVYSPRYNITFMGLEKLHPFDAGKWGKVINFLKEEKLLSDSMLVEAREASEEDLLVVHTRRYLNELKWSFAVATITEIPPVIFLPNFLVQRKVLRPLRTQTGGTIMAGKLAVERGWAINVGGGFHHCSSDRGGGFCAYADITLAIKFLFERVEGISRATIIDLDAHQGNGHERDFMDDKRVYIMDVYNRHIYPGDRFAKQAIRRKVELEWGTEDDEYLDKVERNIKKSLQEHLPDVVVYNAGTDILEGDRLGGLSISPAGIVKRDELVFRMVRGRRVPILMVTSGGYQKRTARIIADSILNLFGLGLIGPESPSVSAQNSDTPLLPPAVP
Method: as §1
as §2, with “compound. […]” for “compound.”

HDAC5 = HDAC5 (Homo sapiens, UniProt Q9UQL6); experiment: in vitro HDAC inhibition assay (fluorescence), HDAC5; type: biochemical
Method: as §1
as §2, with “compound. […]” for “compound.”

Sequence of HDAC9 (Q9UKV0 whole entry): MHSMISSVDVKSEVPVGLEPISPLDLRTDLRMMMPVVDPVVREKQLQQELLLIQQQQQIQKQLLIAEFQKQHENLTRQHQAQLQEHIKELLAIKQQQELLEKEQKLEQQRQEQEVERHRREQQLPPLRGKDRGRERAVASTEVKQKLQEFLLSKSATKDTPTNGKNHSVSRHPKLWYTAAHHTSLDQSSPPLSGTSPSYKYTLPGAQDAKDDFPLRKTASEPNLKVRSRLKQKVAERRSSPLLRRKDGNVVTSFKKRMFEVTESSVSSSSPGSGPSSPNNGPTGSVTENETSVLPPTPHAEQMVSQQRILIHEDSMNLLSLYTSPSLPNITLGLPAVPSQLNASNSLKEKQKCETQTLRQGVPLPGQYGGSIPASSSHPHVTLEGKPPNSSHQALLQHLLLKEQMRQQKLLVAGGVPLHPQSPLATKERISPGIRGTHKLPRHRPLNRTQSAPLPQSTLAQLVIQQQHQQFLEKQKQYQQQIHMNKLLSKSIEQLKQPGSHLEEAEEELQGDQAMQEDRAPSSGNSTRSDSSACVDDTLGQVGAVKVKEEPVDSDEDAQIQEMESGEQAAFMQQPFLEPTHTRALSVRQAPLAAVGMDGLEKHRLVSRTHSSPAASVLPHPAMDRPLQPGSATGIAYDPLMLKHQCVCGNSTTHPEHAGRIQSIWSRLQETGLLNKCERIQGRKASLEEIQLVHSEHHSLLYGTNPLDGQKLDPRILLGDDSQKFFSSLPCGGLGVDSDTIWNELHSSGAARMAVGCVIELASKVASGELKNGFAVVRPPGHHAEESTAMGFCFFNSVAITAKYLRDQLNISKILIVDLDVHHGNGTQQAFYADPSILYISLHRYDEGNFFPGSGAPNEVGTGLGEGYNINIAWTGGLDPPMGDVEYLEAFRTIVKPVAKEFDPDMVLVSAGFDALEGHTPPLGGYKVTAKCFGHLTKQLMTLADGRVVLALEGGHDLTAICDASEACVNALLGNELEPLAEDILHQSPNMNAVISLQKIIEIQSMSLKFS
Sequence of HDAC5 (Q9UQL6 whole entry): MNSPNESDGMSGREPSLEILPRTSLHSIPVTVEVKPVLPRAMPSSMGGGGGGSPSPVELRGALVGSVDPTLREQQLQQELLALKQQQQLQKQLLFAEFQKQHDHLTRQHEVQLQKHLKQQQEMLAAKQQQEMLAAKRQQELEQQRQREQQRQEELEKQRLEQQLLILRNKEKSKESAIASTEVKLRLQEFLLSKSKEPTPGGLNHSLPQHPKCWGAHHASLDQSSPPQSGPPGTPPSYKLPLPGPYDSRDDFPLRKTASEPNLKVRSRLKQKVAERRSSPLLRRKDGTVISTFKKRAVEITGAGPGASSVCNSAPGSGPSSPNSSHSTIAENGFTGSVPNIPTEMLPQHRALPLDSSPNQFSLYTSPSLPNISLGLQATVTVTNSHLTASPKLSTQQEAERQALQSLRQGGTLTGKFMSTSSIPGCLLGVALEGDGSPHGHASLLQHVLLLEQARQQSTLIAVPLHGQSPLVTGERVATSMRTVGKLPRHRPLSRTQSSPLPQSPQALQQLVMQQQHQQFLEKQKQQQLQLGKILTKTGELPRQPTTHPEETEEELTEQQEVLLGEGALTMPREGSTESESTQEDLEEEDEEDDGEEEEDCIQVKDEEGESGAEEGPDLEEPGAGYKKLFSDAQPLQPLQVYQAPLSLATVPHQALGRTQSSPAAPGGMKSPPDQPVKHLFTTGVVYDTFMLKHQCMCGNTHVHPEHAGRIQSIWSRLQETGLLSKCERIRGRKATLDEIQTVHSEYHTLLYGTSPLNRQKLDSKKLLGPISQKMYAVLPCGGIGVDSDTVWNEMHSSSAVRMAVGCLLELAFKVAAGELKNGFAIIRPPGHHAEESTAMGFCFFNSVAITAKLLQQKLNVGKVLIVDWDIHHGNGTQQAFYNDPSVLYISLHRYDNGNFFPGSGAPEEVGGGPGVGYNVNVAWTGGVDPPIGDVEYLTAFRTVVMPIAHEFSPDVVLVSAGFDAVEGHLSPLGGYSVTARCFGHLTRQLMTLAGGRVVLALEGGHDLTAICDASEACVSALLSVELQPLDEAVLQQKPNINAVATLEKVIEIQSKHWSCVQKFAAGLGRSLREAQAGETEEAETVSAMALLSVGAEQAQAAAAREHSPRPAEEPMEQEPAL
Sequence of HDAC2 (Q92769 whole entry): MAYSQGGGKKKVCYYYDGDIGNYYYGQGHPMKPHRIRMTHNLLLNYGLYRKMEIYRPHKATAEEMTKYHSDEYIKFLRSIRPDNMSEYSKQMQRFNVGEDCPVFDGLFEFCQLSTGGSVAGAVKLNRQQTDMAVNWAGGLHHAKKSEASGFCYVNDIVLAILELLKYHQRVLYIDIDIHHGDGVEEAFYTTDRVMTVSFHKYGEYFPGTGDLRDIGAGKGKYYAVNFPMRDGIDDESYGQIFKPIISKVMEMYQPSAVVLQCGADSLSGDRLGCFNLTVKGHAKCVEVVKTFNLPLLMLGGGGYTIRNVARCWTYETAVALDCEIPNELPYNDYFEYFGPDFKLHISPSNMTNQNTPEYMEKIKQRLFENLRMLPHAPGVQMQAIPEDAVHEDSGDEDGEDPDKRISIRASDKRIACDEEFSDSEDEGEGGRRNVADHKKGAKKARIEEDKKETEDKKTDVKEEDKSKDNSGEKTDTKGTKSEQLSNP

Compound `O=C(NO)c1cnc(N2CC3C(C2)C3NCc2ccc3cc(F)ccc3n2)nc1` (stereo not drawn) [Nstat, 2-(6-{[(6-Fluoroquinolin-2-yl)methyl]amino}-3-azabicyclo[3.1.0]hex-3-yl)-N-hydroxypyrimidine-5-carboxamide] has an IC50 (HDAC2) of 12 nM, an IC50 (HDAC6) of 450 nM and an AUC ([1]; Treatment A = 5 mg VRx-3996 p.o. and 450 mg Valganciclovir p.o., single dose, N=1, read-out: AUC, geometric mean) of 117 ng·h/mL. For the same compound, the half-life ([1]; Treatment A = 5 mg VRx-3996 p.o. and 450 mg Valganciclovir p.o., single dose, N=1, read-out: Half-Life, geometric mean (converted)) was 2.18 h, the AUC(0-t) ([1]; Treatment A = 5 mg VRx-3996 p.o. and 450 mg Valganciclovir p.o., single dose, N=4, read-out: AUClast, geometric mean) was 40.5 ng·h/mL and the Cmax ([1]; Treatment A = 5 mg VRx-3996 p.o. and 450 mg Valganciclovir p.o., single dose, N=4, read-out: Cmax, geometric mean) was 18.5 ng/mL. It also gave a Tmax ([1]; Treatment A = 5 mg VRx-3996 p.o. and 450 mg Valganciclovir p.o., single dose, N=4, read-out: Tmax, median (range)) of 3 h, an AUC ([1]; Treatment B = 10 mg VRx-3996 p.o. and 450 mg Valganciclovir p.o., single dose, N=1, read-out: AUC, geometric mean) of 317 ng·h/mL and a half-life ([1]; Treatment B = 10 mg VRx-3996 p.o. and 450 mg Valganciclovir p.o., single dose, N=1, read-out: Half-Life, geometric mean (converted)) of 1.17 h. The AUC(0-t) ([1]; Treatment B = 10 mg VRx-3996 p.o. and 450 mg Valganciclovir p.o., single dose, N=9, read-out: AUClast, geometric mean) was 165 ng·h/mL, the Cmax ([1]; Treatment B = 10 mg VRx-3996 p.o. and 450 mg Valganciclovir p.o., single dose, N=9, read-out: Cmax, geometric mean) was 62.6 ng/mL and the Tmax ([1]; Treatment B = 10 mg VRx-3996 p.o. and 450 mg Valganciclovir p.o., single dose, N=9, read-out: Tmax, median (range)) was 2 h. It also gave an AUC ([1]; Treatment C = 10 mg VRx-3996 p.o. and 900 mg Valganciclovir p.o., single dose, N=4, read-out: AUC, geometric mean) of 322 ng·h/mL, a half-life ([1]; Treatment C = 10 mg VRx-3996 p.o. and 900 mg Valganciclovir p.o., single dose, N=4, read-out: Half-Life, geometric mean (converted)) of 1.67 h and an AUC(0-t) ([1]; Treatment C = 10 mg VRx-3996 p.o. and 900 mg Valganciclovir p.o., single dose, N=6, read-out: AUClast, geometric mean) of 227 ng·h/mL. The Cmax ([1]; Treatment C = 10 mg VRx-3996 p.o. and 900 mg Valganciclovir p.o., single dose, N=6, read-out: Cmax, geometric mean) was 78.9 ng/mL, the Tmax ([1]; Treatment C = 10 mg VRx-3996 p.o. and 900 mg Valganciclovir p.o., single dose, N=6, read-out: Tmax, median (range)) was 1 h and the half-life ([1]; humans, oral nanatinostat with valganciclovir, read-out: T1/2 (converted)) was roughly 2 h. The IC50 (HDAC9) was 440 nM, the IC50 (HDAC11) was 2800 nM and the IC50 (HDAC5) was 390 nM.
